Reference: patent US10138292B2, “Cell culture medium” (BIOLAMINA AB, priority 2010, dated 2018)

Key:
hES cells [1] = experiment: Cell survival assay, 24 hours (Example 2); format: cell-based, human; conditions: for survival after 24 hours: dissociated hES cells; for survival 24 hours after plating: single cell suspension, O3 medium, absence of ROCK inhibitor
Method: (§1) The survival assay was performed as described for the cell adhesion assay above, except that the cells were left in the cell incubator for 24 hours. For inhibition of survival assay, the cells were kept in a medium with function blocking antibodies at the concentrations recommended by the manufacturer or pathway inhibitors at concentrations indicated in the text for 30 minutes, and then plated on the coated dishes. All the experiments were performed in quadruplicate.
Pluripotent hES cells express α1, α5, β1, β2 and γ1 laminin chains. To compare the adhesion and clonal survival of hES cells plated from single cell suspension to different coating substrata, hES cells growing as monolayers on LN-511 or as clusters on a feeder layer were trypsinized into single cell suspension in O3 medium and plated on cell culture dishes coated with Matrigel, LN-111, LN-511, LN-521 or a mixture of LN-511 and LN-521, in the absence or presence of a ROCK inhibitor (Y-27632) and analyzed after 24 hours.

human ES cells [2] = experiment: Cell adhesion / single cell survival 1 day after plating (Example 1); format: cell-based; conditions: for cells remaining attached / surviving 24 hours after plating: completely dissociated H5181 cells, O3 medium without any additives, no ROCK inhibitor
Method: (§2) Ninety-six-well tissue cell culture plates were coated overnight at 4° C. with sterile solutions of the ECM proteins mouse LN-111 (Invitrogen), human recombinant LN-511, and human recombinant LN-521, all at a concentration of 30 μg/ml (5 μg/cm^2). For control cells, BD Matrigel™ hESC qualified (BD Biosciences) was used according to the manufacturer's instructions.
(§3) The assay was performed as described (Extracellular Matrix Protocols, 2000). Briefly, 96-well plates were coated by extracellular matrix proteins as described above and blocked by O3 medium containing bovine serum albumin. The ES cells were plated at a cell density of 600 cell/mm^2 upon extracellular matrix-coated plates and were left to adhere for either 1 hour or 1 day at the cell incubator. Non-adherent cells were washed away, and adherent cells were fixed for 20 min by 5% glutaraldehyde, stained by 0.1% Crystal Violet.

human ES cells [3] = conditions: teratomas after engraftment into SCID mice; cited from earlier work
[4] = tested on: phosphorylated myosin light chain (P-MLC); experiment: Western blot of phosphorylated myosin light chain; format: cell-based, human; conditions: one and six hours after plating
Method: HS 181 cells were trypsinized into single cell suspension as described above. For inhibition experiments, the cells were kept in O3 medium with blocking antibodies or pathway inhibitors for 30 minutes and then 450K cells were plated on 35 mm dishes precoated with the appropriate matrix coating. For other experiments, same number of cells was plated directly after trypsinization. […] After two washings in ice-cold PBS, the plates with cells were snap frozen in liquid nitrogen and stored at −80° C. To prepare samples for western blots and ELISA, the plates were slowly thawed and kept on ice with 100-150 μl of lysis buffer (50 mM Tris-HCl, pH7.5, 150 mM NaCl, 0.5% deoxycholate, 0.5% SDS, 1% Triton X-100, 1% Igepal, Complete™ (Roche) and Phospho-Stop™ (Roche)) on top. Then, the cells were scraped, pipetted and sheared through a 27G ¾″ needle. After that, the cell pellets were clarified by centrifugation at 16,100 rcf for 15 minutes at 4° C. For western blots, 4-12% gradient gels were used for SDS electrophoresis and the proteins were transferred to PVDF membranes. The membrane was hybridized with the antibody of interest according to the manufacturer's instructions. Chemoluminescent HRP-substrate from Amersham Biosciences was used for visualization. For the densitometry analysis the films were scanned at 2,400 dpi and analyzed by the Chemilmager5500 program (1D-Multi Line densitometry mode). […]

[5] = tested on: human embryonic stem cells; experiment: Survival of dissociated human embryonic stem cells one day after plating on precoated dishes; format: cell-based; conditions: single cell suspension, O3 medium, 30 Kcells/cm^2
Excerpt: In other aspects, the present disclosure provides a new material, isolated laminin-521, which permits human embryonic stem cell survival after dissociation into single cell suspension. The stem cells were dissociated into single cell suspension by Trypsin-EDTA treatment, pelleted by centrifugation, resuspended into O3 medium, filtered through a 40 μm sieve, and plated at a density of 30 Kcells/cm^2 on cell culture dishes precoated by either isolated laminin-521, laminin-511, or Matrigel. After one day in culture, the cells plated on Matrigel died, as is known in the art.

mouse ES cells = conditions: without LIF or feeder cells; cited from earlier work
Integrin α6β1 = Integrin α6β1 (Homo sapiens, UniProt P05556+P23229); conditions: cited from earlier work
human ES cells [6] = experiment: Cell adhesion assay, 1 hour (Example 1); format: cell-based; conditions: O3 medium without any additives, without Y-27632
Method: as §2, §3

hES cells [7] = experiment: Cell adhesion assay, 1 hour (Example 2); format: cell-based, human; conditions: not shown
Method: Tissue cell culture plates were coated overnight at 4° C. with sterile solutions of the ECM proteins, such as human recombinant LN-521, all at a concentration of 30 μg/ml (5 μg/cm^2). Control plates were coated with Matrigel according to the STEMCELL Technologies' instructions. Prior to use, dishes were pre-warmed in an incubator for one hour after which prewarmed O3 medium was added without additional washing of the dish. After applying a fresh LN-521 solution to a new dish, the remaining LN-521 solution could be used at least once more. All the adhesion, survival, and inhibition of survival experiments were carried out using fresh coating materials.
Briefly, 96-well plates were coated by extracellular matrix proteins as described above and blocked by O3 medium containing bovine serum albumin. The ES cells were plated at cell density of 50,000 cells/cm^2 onto extracellular matrix-coated plates and left to adhere for 1 hour in a cell incubator. After that the plates were washed 3 times with the medium to remove the non-adherent cells, and then the adherent cells were fixed for 20 minutes by 5% glutaraldehyde, stained by 0.1% Crystal Violet. (Kebo Lab, Spanga, Sweden, http://www.kebolab.se). After one hour and 3 washes with water, Crystal Violet was extracted with 10% acetic acid and quantified by measuring optical density at 570 nm. All the experiments were performed in quadruplicate.

[8] = tested on: PI3K/Akt and MEK1/Erk pathways; experiment: Western blot with antibodies to phospho-Akt / phospho-Erk; format: cell-based, human; conditions: cells collected one hour after plating on LN-521
Method: HS 181 cells were trypsinized into single cell suspension as described above. For inhibition experiments, the cells were kept in O3 medium with blocking antibodies or pathway inhibitors for 30 minutes and then 450K cells were plated on 35 mm dishes precoated with the appropriate matrix coating. For other experiments, same number of cells was plated directly after trypsinization. In all cases the cells were allowed to spread for 1 hour at 37° C., 5% CO2. After two washings in ice-cold PBS, the plates with cells were snap frozen in liquid nitrogen and stored at −80° C. To prepare samples for western blots and ELISA, the plates were slowly thawed and kept on ice with 100-150 μl of lysis buffer (50 mM Tris-HCl, pH7.5, 150 mM NaCl, 0.5% deoxycholate, 0.5% SDS, 1% Triton X-100, 1% Igepal, Complete™ (Roche) and Phospho-Stop™ (Roche)) on top. Then, the cells were scraped, pipetted and sheared through a 27G ¾″ needle. After that, the cell pellets were clarified by centrifugation at 16,100 rcf for 15 minutes at 4° C. For western blots, 4-12% gradient gels were used for SDS electrophoresis and the proteins were transferred to PVDF membranes. The membrane was hybridized with the antibody of interest according to the manufacturer's instructions. […] For the densitometry analysis the films were scanned at 2,400 dpi and analyzed by the Chemilmager5500 program (1D-Multi Line densitometry mode). […]

hES cells [9] = experiment: Inhibition of survival assay on LN-521; format: cell-based, human; conditions: medium contained bFGF
Method: as §1

hES cells [10] = experiment: Clonal survival of individualized hES cells (Example 4); format: cell-based, human; conditions: mTeSR1 medium, 250 cells per cm^2, 5 days, alkaline phosphatase staining
Method: hES cells were plated in mTeSR1 medium on different coatings at a density of 250 cells per cm^2 and monitored after 5 days in culture using an alkaline phosphatase staining kit.
Next, combinations of laminin-521 and E-Cadherin were tested to determine whether the combinations could sustain clonal survival of the cells. Fixed amounts of laminin-521 were used for the cell culture dish coating in combination with titrated E-Cadherin.
Additional tests were performed to test the effects of various modifications to the mTeSR1 medium. A mixture of E-Cadherin to laminin-521 in a ratio of about 1:10 w/w was used to coat the plates. […] Time-lapse photography of the cells confirmed that laminin-521/E-Cadherin coatings facilitated cell survival through proliferation of the single cells, not through the aggregation of different cells.

Chain of Integrin α6β1 (P23229 24-1130): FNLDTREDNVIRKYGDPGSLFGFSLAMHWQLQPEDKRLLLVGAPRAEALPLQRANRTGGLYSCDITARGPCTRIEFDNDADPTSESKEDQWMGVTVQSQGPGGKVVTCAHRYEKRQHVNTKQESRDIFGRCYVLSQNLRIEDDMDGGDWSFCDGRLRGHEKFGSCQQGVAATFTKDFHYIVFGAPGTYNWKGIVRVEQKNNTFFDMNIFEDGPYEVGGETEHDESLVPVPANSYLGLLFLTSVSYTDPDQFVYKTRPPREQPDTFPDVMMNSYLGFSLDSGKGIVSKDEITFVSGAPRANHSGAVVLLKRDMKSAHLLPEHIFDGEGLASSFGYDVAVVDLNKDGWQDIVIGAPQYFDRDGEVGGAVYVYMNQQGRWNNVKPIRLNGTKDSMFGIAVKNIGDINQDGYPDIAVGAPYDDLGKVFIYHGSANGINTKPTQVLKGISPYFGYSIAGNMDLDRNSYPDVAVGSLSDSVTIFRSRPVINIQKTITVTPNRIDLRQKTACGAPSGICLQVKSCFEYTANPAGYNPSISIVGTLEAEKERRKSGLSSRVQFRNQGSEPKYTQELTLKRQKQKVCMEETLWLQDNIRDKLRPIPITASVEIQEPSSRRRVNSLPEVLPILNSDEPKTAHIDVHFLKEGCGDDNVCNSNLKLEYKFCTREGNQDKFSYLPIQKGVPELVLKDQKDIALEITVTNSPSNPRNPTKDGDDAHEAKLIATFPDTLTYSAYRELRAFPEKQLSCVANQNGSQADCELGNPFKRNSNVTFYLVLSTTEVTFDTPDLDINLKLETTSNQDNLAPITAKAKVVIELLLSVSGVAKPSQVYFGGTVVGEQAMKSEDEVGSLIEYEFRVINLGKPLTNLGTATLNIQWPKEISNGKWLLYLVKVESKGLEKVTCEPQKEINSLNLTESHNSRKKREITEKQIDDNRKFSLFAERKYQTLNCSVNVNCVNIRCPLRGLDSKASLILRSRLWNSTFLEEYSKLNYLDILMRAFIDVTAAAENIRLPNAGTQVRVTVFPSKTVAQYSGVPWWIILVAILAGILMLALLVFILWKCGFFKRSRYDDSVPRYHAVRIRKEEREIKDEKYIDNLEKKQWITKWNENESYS
Chain of Integrin α6β1 (P05556 21-798): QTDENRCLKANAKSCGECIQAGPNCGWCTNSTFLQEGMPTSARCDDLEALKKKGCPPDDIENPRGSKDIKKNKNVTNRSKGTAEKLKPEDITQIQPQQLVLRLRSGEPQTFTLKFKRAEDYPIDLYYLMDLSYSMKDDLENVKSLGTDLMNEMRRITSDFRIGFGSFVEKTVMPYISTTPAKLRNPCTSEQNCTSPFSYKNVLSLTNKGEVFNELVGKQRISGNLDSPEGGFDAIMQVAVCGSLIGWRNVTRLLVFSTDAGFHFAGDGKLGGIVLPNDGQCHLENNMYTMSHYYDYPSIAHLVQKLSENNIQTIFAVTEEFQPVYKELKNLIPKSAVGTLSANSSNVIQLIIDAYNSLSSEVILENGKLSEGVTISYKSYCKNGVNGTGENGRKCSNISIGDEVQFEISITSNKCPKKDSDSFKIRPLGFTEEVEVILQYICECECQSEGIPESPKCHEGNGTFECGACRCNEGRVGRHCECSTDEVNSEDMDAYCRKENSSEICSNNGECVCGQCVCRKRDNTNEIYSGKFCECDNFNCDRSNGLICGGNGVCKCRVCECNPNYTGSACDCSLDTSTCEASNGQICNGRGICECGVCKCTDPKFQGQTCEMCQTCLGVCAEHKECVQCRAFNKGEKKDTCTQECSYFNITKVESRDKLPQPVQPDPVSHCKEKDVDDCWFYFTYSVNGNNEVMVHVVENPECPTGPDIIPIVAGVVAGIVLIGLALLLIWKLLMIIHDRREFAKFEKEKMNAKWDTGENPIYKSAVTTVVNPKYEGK

C[C@@H](N)[C@H]1CC[C@H](C(=O)Nc2ccncc2)CC1 [Y-27632, reference compound]
survival 24 hours after plating in the presence of ROCK inhibitor (hES cells [1]; Matrigel, LN-111, LN-511, LN-521 or mixture coatings): survived on all surfaces | cells remaining attached after one day (human ES cells [2]; O3 medium treated with ROCK inhibitor Y-27632, 5 coatings): remained attached on all 5 coatings

LN-511: human recombinant laminin-511 coating protein
pluripotency of human ES cells grown over 3 months (human ES cells [3]): maintain pluripotency | phosphorylation of MLC compared with cells on Matrigel and LN-111 [4]: even higher | survival after 24 hours (hES cells [1]): very few | survival 24 hours after plating (hES cells [1]): did so as single cells | survival after one day in culture [5]: in most cases | duration of self-renewal of mouse ES cells (mouse ES cells): over 5 months | cells remaining attached / surviving 24 hours after plating (human ES cells [2]): at a less extent | binding affinity of integrin α6β1 compared with LN-111 (Integrin α6β1): higher | adhesion of human ES cells at 1 hour (human ES cells [6]): roughly the same | spreading of the cells after one hour compared with Matrigel or LN-111 (hES cells [7]): clearly better

LN-121: human recombinant laminin with α1, β2 and γ1 chains from triple-transfected HEK293 cells
survival 24 hours after plating (hES cells [1]): failed to survive

human recombinant LN-111: human recombinant laminin with α1, β1 and γ1 chains from triple-transfected HEK293 cells
survival 24 hours after plating (hES cells [1]): failed to survive

LN-111: mouse laminin-111 (Invitrogen), indicated as LN-111 if not otherwise stated
survival after 24 hours (hES cells [1]): almost no cells had survived | survival 24 hours after plating (hES cells [1]): did not survive | cells remaining attached / surviving 24 hours after plating (human ES cells [2]): almost no cells remained attached

COc1cccc(-c2cc(=O)c3ccccc3o2)c1N [PD 98059]
efficacy of inhibitor treatment by western blot [8]: confirmed | hES cell survival 24 hours after plating on LN-521 with pathway inhibitor (hES cells [9]): did not affect the survival that severely

B1: E-Cadherin: epithelial-cadherin used as cell culture dish coating (protein, UniProt P12830 155-882, looked up)
Cadherin-1: DWVIPPISCPENEKGPFPKNLVQIKSNKDKEGKVFYSITGQGADTPPVGVFIIERETGWLKVTEPLDRERIATYTLFSHAVSSNGNAVEDPMEILITVTDQNDNKPEFTQEVFKGSVMEGALPGTSVMEVTATDADDDVNTYNAAIAYTILSQDPELPDKNMFTINRNTGVISVVTTGLDRESFPTYTLVVQAADLQGEGLSTTATAVITVTDTNDNPPIFNPTTYKGQVPENEANVVITTLKVTDADAPNTPAWEAVYTILNDDGGQFVVTTNPVNNDGILKTAKGLDFEAKQQYILHVAVTNVVPFEVSLTTSTATVTVDVLDVNEAPIFVPPEKRVEVSEDFGVGQEITSYTAQEPDTFMEQKITYRIWRDTANWLEINPDTGAISTRAELDREDFEHVKNSTYTALIIATDNGSPVATGTGTLLLILSDVNDNAPIPEPRTIFFCERNPKPQVINIIDADLPPNTSPFTAELTHGASANWTIQYNDPTQESIILKPKMALEVGDYKINLKLMDNQNKDQVTTLEVSVCDCEGAAGVCRKAQPVEAGLQIPAILGILGGILALLILILLLLLFLRRRAVVKEPLLPPEDDTRDNVYYYDEEGGGEEDQDFDLSQLHRGLDARPEVTRNDVAPTLMSVPRYLPRPANPDEIGNFIDENLKAADTDPTAPPYDSLLVFDYEGSGSEAASLSSLNSSESDKDQDYDYLNEWGNRFKKLADMYGGGEDD
clonal survival of individualized hES cells (hES cells [10]): Neither laminin-521 nor E-Cadherin alone permitted efficient clonal survival
